Several values for one entry are separate records, joined by “and”; a condition that tells them apart may be missing. Equal entries are not always repeated.
Assays:
[1] = tested on: special operations veterans with combat and/or blast exposure; assay: Hamilton-Anxiety Rating Scale (HAM-A); type: in vivo, human
From the text: (§1) The pre-specified primary outcome was change in the World Health Organization Disability Assessment Schedule 2.0 (WHODAS) (Gold L. H. et al., J. Am. Acad. Psychiatry Law 42, 9 (2014)) from baseline to post-treatment, with change from baseline to the one-month follow-up a secondary outcome. Additional pre-specified secondary outcomes included post-treatment changes on the Clinician Administered PTSD Scale (CAPS-5; Weathers, F. W. et al., Psychol. Assess., 30, 383-395 (2018)), Montgomery-Åsberg Depression Rating Scale (MADRS; Montgomery, S. A., Br. J. Psychiatry J. Ment. Sci., 134, 382-389 (1979)) and the Hamilton-Anxiety Rating Scale (HAM-A; Bruss, G. S., et al., Psychiatry Res., 53, 191-202 (1994)). […] An additional dose of magnesium was administered approximately 12 hours later. To assess the significance of post-treatment changes, linear mixed effects (LME) models were used for each outcome measure. False Discovery Rate (FDR; Benjamini, Y. et al., J. R. Stat. Soc. Ser. B Methodol., 57, 289-300 (1995)) was applied to correct for multiple comparisons.
(§2) To further assess changes in comorbid psychiatric symptoms identified by the models, mean percent reduction, response rate, and remission rate according to the CAPS-5, MADRS and HAM-A (Table 1) were calculated. Response on the CAPS-5, MADRS, and HAM-A was defined as a reduction of at least 10 points (Mitchell, J. M. et al., Nat. Med. 27, 1025-1033(2021)), 50% (Leucht, S. et al., J. Affect. Disord. 210, 287-293 (2017)), and 50% (McIntyre, A. et al., Depress. Anxiety 24, 487-494 (2007)), respectively; remission as loss of diagnosis and a total score below 12 (Mitchell, J. M. et al. supra), <8 (Leucht, S. et al. supra), and <8(McIntyre, A. et al., supra), respectively. One participant's baseline scores met criteria for remission in all three scales and so were excluded from the calculation of response and remission rates, leaving 29 participants in these specific analyses.
(§3) With subjects in the fasting state, an intravenous infusion of 1 gram of magnesium sulfate was administered 1-2 hours prior to treatment. […] Medical staff (MD, RN, or EMT) were onsite at a ratio of at least 1 staff per 2 patients throughout treatment for monitoring and management, but no specific coaching or psychological support was provided during treatment.
(§4) Clinician administered scales included CAPS-5 (Clinician-administered PTSD Scale for DSM-5), which is a gold standard assessment of PTSD symptom severity; MADRS (Montgomery-Asberg Depression Rating Scale), a measure for depressive symptom severity: and Hamilton-Anxiety Rating Scale (HAM-A) (Shear, M. K. et al., Depress. Anxiety 13, 166-178 (2001)) a measure for anxiety symptom severity: SCID-5 (Structured Clinical Interview for DSM-5) Overview for a historical and environmental context of symptom presentation: MINI DSM-5 (Mini International Neuropsychiatric Interview from DSM-5) for a structured psychodiagnostics assessment: BAT-L (Boston Assessment of TBI-Lifetime) for a lifetime history of TBI and blast exposure: and Ohio State University TBI Identification Method (Short Form) for a lifetime history of TBI. MADRS testing provides an indication of depressive symptoms, CAPS-5 provides an indication of PTSD and SIGH-A provides an indication of anxiety. Collectively these overlap to provide indication of mood, concentration, sleep and tension.
To assess anxiety symptoms, the Hamilton Anxiety Rating Scale was used. This scale includes 14-items assessing both psychic and physical symptoms of anxiety. Items are rated on a scale from 0 (no symptoms) to 4 (severe symptoms). Total score ranges were: no or minimal anxiety (≤7), mild (8-14), moderate (15-23), and severe anxiety symptoms (≥24) (Matza et al., Int. J. Methods Psychiatr. Res. 19, 223-232 (2010))).

[2] = tested on: special operations veterans with combat and/or blast exposure; assay: Clinician-Administered PTSD Scale for DSM-5 (CAPS-5); type: in vivo, human
From the text: as §1, §2, §3, §4
For the CAPS-5, the test version with a […] structured interview of PTSD symptoms over the past week was used, using a 0 (“Absent”) to 4 (“Extreme/Incapacitating”) scale, with possible total scores ranging from 0) to 80. The score range 23 to 34 is considered moderate PTSD while a higher score represents severe PTSD (Weathers, F. W. et al., Psychol. Assess. 30, 383-395 (2018)).

[3] = 1-mo. post, only participants meeting relevant MINI diagnostic criteria
[4] = 1-mo. post, only participants with mild TBI
[5] = 1-wk. post, only participants meeting relevant MINI diagnostic criteria
[6] = 1-wk. post, only participants with mild TBI
[7] = baseline vs 1-mo. post, only participants with mild TBI (N 28)
[8] = baseline vs 1-wk post, only participants with mild TBI (N 28)
[9] = baseline vs one-month post, all participants
[10] = baseline vs one-week post, all participants
[11] = one-month post, all participants, mean ± SD
[12] = one-week post, all participants, mean ± SD

CCC1CC2CC3c4[nH]c5ccc(OC)cc5c4CCN(C2)C13 (centres unmarked) [ibogaine, Ibogaine]
HAM-A % Reduction vs Baseline [1, 3]: 80% ± 23%
HAM-A Remission Rate [1, 3]: 71%
HAM-A Response Rate [1, 3]: 86%
HAM-A score ([1]; 1-mo. post, only participants meeting relevant MINI diagnostic criteria at baseline (N 14), baseline 23.8 ± 7.6): 5.1
HAM-A % Reduction vs Baseline [1, 4]: 82% ± 21%
HAM-A Remission Rate [1, 4]: 85%
HAM-A Response Rate [1, 4]: 93%
HAM-A score ([1]; 1-mo. post, only participants with mild TBI (N 28), baseline 20.7 ± 8.6): 3.7
HAM-A score ([1]; 1-wk post, only participants meeting relevant MINI diagnostic criteria at baseline (N 14), baseline 23.8 ± 7.6): 4.2
HAM-A % Reduction vs Baseline [1, 5]: 82% ± 14%
HAM-A Remission Rate [1, 5]: 86%
HAM-A Response Rate [1, 5]: 100%
HAM-A % Reduction vs Baseline [1, 6]: 82% ± 19%
HAM-A Remission Rate [1, 6]: 89%
HAM-A Response Rate [1, 6]: 96%
HAM-A score ([1]; 1-wk. post, only participants with mild TBI (N 28), baseline 20.7 ± 8.6): 3.3
HAM-A, effect size D ([1]; baseline vs 1-mo. post, only participants meeting relevant MINI diagnostic criteria (N 14)): 2.33
HAM-A, effect size D [1, 7]: 2.07
HAM-A, effect size D [1, 8]: 2.02
HAM-A, effect size D ([1]; baseline vs 1-wk. post, only participants meeting relevant MINI diagnostic criteria (N 14)): 2.52
HAM-A, effect size D [1, 9]: 2.13
HAM-A, effect size D [1, 10]: 2.06
HAM-A anxiety symptom severity score ([1]; four days after (immediate post) treatment, baseline about 21 (FIG. 5A)): about 7
HAM-A effect size ([1]; four days after treatment relative to baseline (FIG. 5A)): 1.81
subjects scoring below the mild anxiety range (HAM-A) ([1]; one month post treatment (FIG. 5B)): 90%
HAM-A effect size ([1]; one month post treatment relative to baseline (FIG. 5A)): 1.82
HAM-A Remission Rate ([1]; one-month post, 29 participants, remission = score <8): 83%
HAM-A Response Rate ([1]; one-month post, 29 participants, response = reduction of at least 50%): 93%
HAM-A score ([1]; one-month post, all participants, baseline 20.8 ± 8.5, mean ± SD): 3.9
HAM-A % Reduction vs Baseline [1, 11]: 81% ± 21%
HAM-A Remission Rate ([1]; one-week post, 29 participants, remission = score <8): 86%
HAM-A Response Rate ([1]; one-week post, 29 participants, response = reduction of at least 50%): 97%
HAM-A score ([1]; one-week post, all participants, baseline 20.8 ± 8.5, mean ± SD): 3.6
HAM-A % Reduction vs Baseline [1, 12]: 81% ± 19%
CAPS-5 % Reduction vs Baseline [2, 3]: 86% ± 19%
CAPS-5 Remission Rate [2, 3]: 83%
CAPS-5 Response Rate [2, 3]: 100%
CAPS-5 score ([2]; 1-mo. post, only participants meeting relevant MINI diagnostic criteria at baseline (N 23), baseline 35.7 ± 11.0): 6.0
CAPS-5 % Reduction vs Baseline [2, 4]: 88% ± 17%
CAPS-5 Remission Rate [2, 4]: 85%
CAPS-5 Response Rate [2, 4]: 100%
CAPS-5 score ([2]; 1-mo. post, only participants with mild TBI (N 28), baseline 31.7 ± 13.0): 4.8
CAPS-5 score ([2]; 1-wk post, only participants meeting relevant MINI diagnostic criteria at baseline (N 23), baseline 35.7 ± 11.0): 4.4
CAPS-5 % Reduction vs Baseline [2, 5]: 87% ± 17%
CAPS-5 Remission Rate [2, 5]: 83%
CAPS-5 Response Rate [2, 5]: 96%
CAPS-5 % Reduction vs Baseline [2, 6]: 89% ± 14%
CAPS-5 Remission Rate [2, 6]: 89%
CAPS-5 Response Rate [2, 6]: 96%
CAPS-5 score ([2]; 1-wk. post, only participants with mild TBI (N 28), baseline 31.7 ± 13.0): 3.6
CAPS-5, effect size D ([2]; baseline vs 1-mo. post, only participants meeting relevant MINI diagnostic criteria (N 23)): 2.98
CAPS-5, effect size D [2, 7]: 2.49
CAPS-5, effect size D [2, 8]: 2.28
CAPS-5, effect size D ([2]; baseline vs 1-wk. post, only participants meeting relevant MINI diagnostic criteria (N 23)): 2.75
CAPS-5, effect size D [2, 9]: 2.54
CAPS-5, effect size D [2, 10]: 2.30
subjects lower than mild PTSD symptom severity (CAPS-5) ([2]; one month following treatment (FIG. 3B), mild = 12-22): 80%
CAPS-5 Remission Rate ([2]; one-month post, 29 participants, remission = loss of diagnosis and total score below 12): 86%
CAPS-5 Response Rate ([2]; one-month post, 29 participants, response = reduction of at least 10 points): 100%
CAPS-5 score ([2]; one-month post, all participants, baseline 31.7 ± 12.5, mean ± SD): 4.8
CAPS-5 % Reduction vs Baseline [2, 11]: 88% and 88% ± 17%
CAPS-5 Remission Rate ([2]; one-week post, 29 participants, remission = loss of diagnosis and total score below 12): 86%
CAPS-5 Response Rate ([2]; one-week post, 29 participants, response = reduction of at least 10 points): 97%
CAPS-5 score ([2]; one-week post, all participants, baseline 31.7 ± 12.5, mean ± SD): 3.9
CAPS-5 % Reduction vs Baseline [2, 12]: 88% ± 15%
